Target: T1, SMARCA2 (Homo sapiens, UniProt P51531)
T1 construct: endogenous in cells; host or cells: HT1080 (CRISPR HiBiT knock-in clone, generated in house)
Assay: SMARCA2 HiBiT degradation assay (cellular)
Assay type: cell-based
Conditions: table head names A549; for DC50: 6 h incubation, HiBiT-tagged SMARCA2, luminescence read-out, read-out: HiBit A549 SMARCA2 IP (nM) 6 h; for Emax: A549, 6 h incubation, Emax = amount of residual protein remaining in the cell following compound treatment

T1 sequence (P51531 whole entry): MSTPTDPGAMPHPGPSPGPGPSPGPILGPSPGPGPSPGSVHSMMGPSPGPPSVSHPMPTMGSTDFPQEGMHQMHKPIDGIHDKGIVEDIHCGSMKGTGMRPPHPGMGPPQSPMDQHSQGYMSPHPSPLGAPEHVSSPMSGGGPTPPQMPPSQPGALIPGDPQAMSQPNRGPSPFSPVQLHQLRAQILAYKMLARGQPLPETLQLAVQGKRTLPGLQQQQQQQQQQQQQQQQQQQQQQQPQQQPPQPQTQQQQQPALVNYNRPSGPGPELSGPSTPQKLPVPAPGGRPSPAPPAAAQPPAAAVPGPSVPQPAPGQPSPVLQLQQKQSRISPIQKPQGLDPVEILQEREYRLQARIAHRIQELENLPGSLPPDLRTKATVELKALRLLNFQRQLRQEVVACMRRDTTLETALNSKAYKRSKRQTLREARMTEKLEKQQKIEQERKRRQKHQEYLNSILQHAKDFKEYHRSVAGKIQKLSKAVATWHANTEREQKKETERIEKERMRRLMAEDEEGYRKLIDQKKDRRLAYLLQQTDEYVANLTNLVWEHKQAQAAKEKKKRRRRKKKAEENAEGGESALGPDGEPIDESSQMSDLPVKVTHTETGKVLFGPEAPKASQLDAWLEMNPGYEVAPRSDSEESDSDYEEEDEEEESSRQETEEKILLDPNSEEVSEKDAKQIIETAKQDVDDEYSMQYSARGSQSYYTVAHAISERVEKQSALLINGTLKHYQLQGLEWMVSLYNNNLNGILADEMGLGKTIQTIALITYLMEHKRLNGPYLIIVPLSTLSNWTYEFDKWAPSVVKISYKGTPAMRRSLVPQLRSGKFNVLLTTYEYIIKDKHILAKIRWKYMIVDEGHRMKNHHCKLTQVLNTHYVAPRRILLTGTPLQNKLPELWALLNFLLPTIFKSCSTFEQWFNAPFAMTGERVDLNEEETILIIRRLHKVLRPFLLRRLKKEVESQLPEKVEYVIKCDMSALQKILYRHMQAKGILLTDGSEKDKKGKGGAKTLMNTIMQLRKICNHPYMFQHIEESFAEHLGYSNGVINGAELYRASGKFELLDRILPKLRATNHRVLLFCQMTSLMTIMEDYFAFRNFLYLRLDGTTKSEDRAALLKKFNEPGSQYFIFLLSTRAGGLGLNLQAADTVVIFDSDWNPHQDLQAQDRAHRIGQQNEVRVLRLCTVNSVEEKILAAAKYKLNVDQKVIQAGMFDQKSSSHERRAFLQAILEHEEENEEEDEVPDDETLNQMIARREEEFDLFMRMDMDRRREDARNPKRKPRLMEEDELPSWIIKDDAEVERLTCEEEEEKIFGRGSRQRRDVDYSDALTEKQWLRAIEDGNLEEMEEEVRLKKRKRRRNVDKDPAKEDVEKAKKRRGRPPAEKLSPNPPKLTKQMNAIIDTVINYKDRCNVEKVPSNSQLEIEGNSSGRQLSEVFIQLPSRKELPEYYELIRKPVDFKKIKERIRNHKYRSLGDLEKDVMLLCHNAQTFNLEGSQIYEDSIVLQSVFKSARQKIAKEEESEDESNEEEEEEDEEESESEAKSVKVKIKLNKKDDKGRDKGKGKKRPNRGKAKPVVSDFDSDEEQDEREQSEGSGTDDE

Row | Compound | DC50 [nM] | Emax [%]
1 | Nc1nnc(-c2ccccc2O)cc1N1CC2CCC(C1)N2c1ccc(C(F)(F)F)c(C(=O)N2CCN(C(=O)C3CCN(c4ccc5c(c4)C(=O)N(C4CCC(=O)NC4=O)C5=O)CC3)CC2)c1 (racemic) [Example 107, rac-5-[4-[4-[5-[3-[3-amino-6-(2-hydroxyphenyl)pyridazin-4-yl]-3,8-diazabicyclo[3.2.1]octan-8-yl]-2-(trifluoromethyl)benzoyl]piperazine-1-carbonyl]-1-piperidyl]-2-(2,6-dioxo-3-piperidyl)isoindoline-1,3-dione] | 193 | 51
2 | Nc1nnc(-c2ccccc2O)cc1N1CC2CCC(C1)N2c1cccc(OCCN2CCN(C(=O)CCC(=O)N3CCN(Cc4cccc5c4C(=O)N(C4CCC(=O)NC4=O)C5=O)CC3)CC2)c1 (racemic) [Example 22, rac-4-[[4-[4-[4-[2-[3-[3-[3-amino-6-(2-hydroxyphenyl)pyridazin-4-yl]-3,8-diazabicyclo[3.2.1]octan-8-yl]phenoxy]ethyl]piperazin-1-yl]-4-oxo-butanoyl]piperazin-1-yl]methyl]-2-(2,6-dioxo-3-piperidyl)isoindoline-1,3-dione] | 212 | 28
3 | Nc1nnc(-c2ccccc2O)cc1N1CCC(C(=O)N2CCC3(CC2)CN(C(=O)CC2CCN(c4ccc5c(c4)C(=O)N(C4CCC(=O)NC4=O)C5=O)CC2)CCO3)(c2ccccc2)CC1 (centres unmarked) [Example 168, 5-(4-(2-(9-(1-(3-amino-6-(2-hydroxyphenyl)pyridazin-4-yl)-4-phenylpiperidine-4-carbonyl)-1-oxa-4,9-diazaspiro[5.5]undecan-4-yl)-2-oxoethyl)piperidin-1-yl)-2-(2,6-dioxopiperidin-3-yl)isoindoline-1,3-dione] | 111 | 60
4 | Nc1nnc(-c2ccccc2O)cc1N1CCC(CNC(=O)CC2CCN(c3ccc4c(c3)C(=O)N(C3CCC(=O)NC3=O)C4=O)CC2)(c2ccccc2)CC1 (centres unmarked) [Example 77, N-((1-(3-amino-6-(2-hydroxyphenyl)pyridazin-4-yl)-4-phenylpiperidin-4-yl)methyl)-2-(1-(2-(2,6-dioxopiperidin-3-yl)-1,3-dioxoisoindolin-5-yl)piperidin-4-yl)acetamide] | 77 | 57
5 | Nc1nnc(-c2ccccc2O)cc1N1CC2CCC(C1)N2c1cccc(OCCN2CCN(C(=O)CN3CCC(c4ccc(OC5CCC(=O)NC5=O)cn4)CC3)CC2)c1 (centres unmarked) [Example 198, 3-[[6-[1-[2-[4-[2-[3-[3-[3-amino-6-(2-hydroxyphenyl)pyridazin-4-yl]-3,8-diazabicyclo[3.2.1]octan-8-yl]phenoxy]ethyl]piperazin-1-yl]-2-oxo-ethyl]-4-piperidyl]-3-pyridyl]oxy]piperidine-2,6-dione] | 277 | 68
6 | Nc1nnc(-c2ccccc2O)cc1N1CCC(NC(=O)CCN2CCC(c3ccc(OC4CCC(=O)NC4=O)cc3)CC2)(c2ccccc2)CC1 (centres unmarked) [Example 115, N-(1-(3-amino-6-(2-hydroxyphenyl)pyridazin-4-yl)-4-phenylpiperidin-4-yl)-3-(4-(4-((2,6-dioxopiperidin-3-yl)oxy)phenyl)piperidin-1-yl)propanamide diformate] | 810 | 63
7 | Nc1nnc(-c2ccccc2O)cc1OC1CCCN(c2ccc(N3CCN(CCCCCCCCCn4cc(CNc5cccc6c5C(=O)N(C5CCC(=O)NC5=O)C6=O)nn4)CC3)cc2)C1 (centres unmarked) [Example 37, 4-[[1-[9-[4-[4-[3-[3-amino-6-(2-hydroxyphenyl)pyridazin-4-yl]oxy-1-piperidyl]phenyl]piperazin-1-yl]nonyl]triazol-4-yl]methylamino]-2-(2,6-dioxo-3-piperidyl)isoindoline-1,3-dione] | 57 | 34
8 | Nc1nnc(-c2cc(F)ccc2O)cc1OC1CCCN(c2ccc(N3CCN(C(=O)CCCCCCCCn4cc(CNc5cccc6c5C(=O)N(C5CCC(=O)NC5=O)C6=O)nn4)CC3)cc2)C1 (centres unmarked) [Example 64, 4-[[1-[9-[4-[4-[3-[3-amino-6-(5-fluoro-2-hydroxy-phenyl)pyridazin-4-yl]oxy-1-piperidyl]phenyl]piperazin-1-yl]-9-oxo-nonyl]triazol-4-yl]methylamino]-2-(2,6-dioxo-3-piperidyl)isoindoline-1,3-dione] | 82 | 52
9 | Nc1nnc(-c2ccccc2O)cc1N1CCC(C(=O)N2CCC3(CC2)CN(C(=O)CCCN2CCC(c4ccc(OC5CCC(=O)NC5=O)cc4)CC2)CCO3)(c2ccccc2)CC1 (centres unmarked) [Example 181, 3-(4-(1-(4-(9-(1-(3-amino-6-(2-hydroxyphenyl)pyridazin-4-yl)-4-phenylpiperidine-4-carbonyl)-1-oxa-4,9-diazaspiro[5.5]undecan-4-yl)-4-oxobutyl)piperidin-4-yl)phenoxy)piperidine-2,6-dione] | 99 | 56
10 | Nc1nnc(-c2ccccc2O)cc1N1CC2CCC(C1)N2c1nccc(OCCN2CCN(CCCOC3CCN(c4ccc5c(c4)C(=O)N(C4CCC(=O)NC4=O)C5=O)CC3)CC2)n1 (racemic) [Example 161, rac-5-[4-[3-[4-[2-[2-[3-[3-Amino-6-(2-hydroxyphenyl)pyridazin-4-yl]-3,8-diazabicyclo[3.2.1]octan-8-yl]pyrimidin-4-yl]oxyethyl]piperazin-1-yl]propoxy]-1-piperidyl]-2-(2,6-dioxo-3-piperidyl)isoindoline-1,3-dione] | 33 | 30
11 | Nc1nnc(-c2ccccc2O)cc1N1CCC(CNC(=O)COc2ccc3c(c2)C(=O)N(C2CCC(=O)NC2=O)C3=O)(c2ccccc2)CC1 (centres unmarked) [Example 73, N-((1-(3-amino-6-(2-hydroxyphenyl)pyridazin-4-yl)-4-phenylpiperidin-4-yl)methyl)-2-((2-(2,6-dioxopiperidin-3-yl)-1,3-dioxoisoindolin-5-yl)oxy)acetamide] | 114 | 49
12 | Nc1nnc(-c2ccccc2O)cc1N1CC2CCC(C1)N2c1cccc(OCCN2CCN(CCOC3CCN(c4ccc5c(c4)C(=O)N(C4CCC(=O)NC4=O)C5=O)CC3)CC2)c1 (racemic) [Example 35, rac-5-[4-[2-[4-[2-[3-[3-[3-amino-6-(2-hydroxyphenyl)pyridazin-4-yl]-3,8-diazabicyclo[3.2.1]octan-8-yl]phenoxy]ethyl]piperazin-1-yl]ethoxy]-1-piperidyl]-2-(2,6-dioxo-3-piperidyl)isoindoline-1,3-dione] | 22 | 33
13 | Nc1nnc(-c2ccccc2O)cc1N1CC2CCC(C1)N2c1ccccc1OCCN1CCN(c2ccc3c(c2)C(=O)N(C2CCC(=O)NC2=O)C3=O)CC1 (racemic) [Example 144, rac-5-[4-[2-[2-[3-[3-amino-6-(2-hydroxyphenyl)pyridazin-4-yl]-3,8-diazabicyclo[3.2.1]octan-8-yl]phenoxy]ethyl]piperazin-1-yl]-2-(2,6-dioxo-3-piperidyl)isoindoline-1,3-dione] | 797 | 75
14 | Nc1nnc(-c2ccccc2O)cc1N1CC2CCC(C1)N2c1cccc(CN2CCC(C(=O)N3CCN(c4ccc5c(c4)C(=O)N(C4CCC(=O)NC4=O)C5=O)CC3)CC2)c1 (racemic) [Example 95, rac-5-[4-[1-[[3-[3-[3-amino-6-(2-hydroxyphenyl)pyridazin-4-yl]-3,8-diazabicyclo[3.2.1]octan-8-yl]phenyl]methyl]piperidine-4-carbonyl]piperazin-1-yl]-2-(2,6-dioxo-3-piperidyl)isoindoline-1,3-dione] | 13 | 25
15 | Nc1nnc(-c2ccccc2O)cc1N1CCC(C(=O)N2CCC3(CC2)CN(C(=O)COc2ccc4c(c2)C(=O)N(C2CCC(=O)NC2=O)C4=O)CCO3)(c2ccccc2)CC1 (centres unmarked) [Example 166, 5-(2-(9-(1-(3-amino-6-(2-hydroxyphenyl)pyridazin-4-yl)-4-phenylpiperidine-4-carbonyl)-1-oxa-4,9-diazaspiro[5.5]undecan-4-yl)-2-oxoethoxy)-2-(2,6-dioxopiperidin-3-yl)isoindoline-1,3-dione] | 607 | 53
16 | CN(C(=O)C1CCN(Cc2cccc(N3C4CCC3CN(c3cc(-c5ccccc5O)nnc3N)C4)c2)CC1)C1CN(c2ccc3c(c2)C(=O)N(C2CCC(=O)NC2=O)C3=O)C1 (racemic) [Example 170, rac-1-[[3-[3-[3-amino-6-(2-hydroxyphenyl)pyridazin-4-yl]-3,8-diazabicyclo[3.2.1]octan-8-yl]phenyl]methyl]-N-[1-[2-(2,6-dioxo-3-piperidyl)-1,3-dioxo-isoindolin-5-yl]azetidin-3-yl]-N-methyl-piperidine-4-carboxamide] | 18 | 31
17 | Nc1nnc(-c2ccccc2O)cc1N1CCC(CNC(=O)COc2cccc3c2C(=O)N(C2CCC(=O)NC2=O)C3=O)(c2ccccc2)CC1 (centres unmarked) [Example 72, N-[[1-[3-amino-6-(2-hydroxyphenyl)pyridazin-4-yl]-4-phenyl-4-piperidyl]methyl]-2-[2-(2,6-dioxo-3-piperidyl)-1,3-dioxo-isoindolin-4-yl]oxy-acetamide] | 273 | 62
18 | Nc1nnc(-c2ccccc2O)cc1N1CC2CCC(C1)N2c1cccc(OCCN2CCN(C(=O)N3C[C@@H]4CN(c5ccc6c(c5)C(=O)N(C5CCC(=O)NC5=O)C6=O)C[C@@H]4C3)CC2)c1 (relative stereo) [Example 157, rac-2-(2,6-dioxo-3-piperidyl)-5-[rel-(3aS,6aR)-5-[4-[2-[3-[3-[3-amino-6-(2-hydroxyphenyl)pyridazin-4-yl]-3,8-diazabicyclo[3.2.1]octan-8-yl]phenoxy]ethyl]piperazine-1-carbonyl]-1,3,3a,4,6,6a-hexahydropyrrolo[3,4-c]pyrrol-2-yl]isoindoline-1,3-dione] | 108 | 68
19 | Nc1nnc(-c2ccccc2O)cc1N1CC2CCC(C1)N2c1cccc(OCCN2CCN(C(=O)CCC3CCN(c4ccc5c(c4)C(=O)N(C4CCC(=O)NC4=O)C5=O)CC3)CC2)c1 (racemic) [Example 14, rac-5-[4-[3-[4-[2-[3-[3-[3-amino-6-(2-hydroxyphenyl)pyridazin-4-yl]-3,8-diazabicyclo[3.2.1]octan-8-yl]phenoxy]ethyl]piperazin-1-yl]-3-oxo-propyl]-1-piperidyl]-2-(2,6-dioxo-3-piperidyl)isoindoline-1,3-dione] | 31 | 45
